In patent publication US5614533A, “Substituted pipecolinic acid derivatives as HIV protease inhibitors” (Bio-Mega/Boehringer Ingelheim Research, Inc., priority 1994, dated 1997) one finds IC50 and EC50 data, which are given here for 11 compounds.

The target of one test is T1, HIV protease (Human immunodeficiency virus type 1 group M subtype B, UniProt P04585).
T1 construct: HIV protease was expressed in E. coli; made in house; host or cells: E. coli (plasmid pBRT1 prt+)
The experiment in a line: Recombinant HIV Protease HPLC Assay. Type of test: biochemical. The note with it: 37°, 30 min, pH 5.5. An excerpt:
The procedure is based on the capacity of the test compound to inhibit enzymatic cleavage by HIV protease of a decapeptide (the substrate) having an amino acid sequence which includes a known HIV protease cleavage site of a HIV polyprotein; see H. G. Krausslich et al., Proc. Natl. Acad. Sci. USA, 86, 807 (1989). Details of this assay together with the results obtained for exemplified compounds of formula 1 are described in the examples hereinafter.
Recombinant HIV Protease HPLC Assay:
Enzyme: HIV protease was expressed in E. coli {construct pBRT1 prt^+, see W. G. Farmerie et al., Science, 236, 305 (1987)}, according to the following protocol:
E. coli cells containing the pBRT1 prt^+ plasmid were used to inoculate a seed culture media composed of Luria-Bertani Broth containing 100 μg/mL of ampicillin. Flasks were incubated at 37° under agitation for 17 h. Production flasks containing sterile M9 broth, supplemented with 100 μg/mL of ampicillin, were inoculated at a level of 1% (v/v) using the seed culture described above. Total volume in each production flask was 500 mL in a 2 L Erlenmeyer flask. Flasks were incubated at 37° under agitation until a cell concentration corresponding to an optical density ([…]) of 0.6 was reached (no dilution). This time span was routinely 3-4 h. Flasks were then supplemented with 5 mM isopropylthiogalactoside (IPTG, Research Organics, Cleveland, Ohio, USA) and incubation was continued until the cell concentration reached an optical density of 0.2 at 16-fold dilution. Flasks were then supplemented with 1 mM phenylmethylsulfonyl fluoride (PMSF) and rapidly chilled to 4°. The bacterial cells were recovered by centrifugation at 4°. The wet pellet was stored at -70°.
All steps below were performed at 4° unless otherwise indicated. Thawed cells were mixed with buffer A {50 mM tris(hydroxymethyl)[…] HCl (Tris-HCl, pH 7.4); 0.6 mM ethylenediaminetetraacetic acid (EDTA); 0.375M NaCl, 0.2% Nonidet P-40® (BDH Chemicals Ltd., Poole, UK); 1 mM PMSF}, at a ratio of one part cells to nine parts buffer A. Diatomaceous earth (Celite 545®, John Manville, Lompoc, Calif. USA) was added at a ratio of two parts to one part of wet cell weight. The resulting slurry was homogenized at high speed (ca. 20,000 rpm) on a Waring® industrial blender for 8×15 sec. pulses. Cell debris/Celite® was collected by centrifugation and the resulting pellet was extracted with 4.5 parts of buffer A to one part wet solids using the homogenization procedure described above. Supernatants from both homogenization steps were combined and soluble protein was precipitated by the addition of solid (NH4)2 SO4 to yield a final concentration of 75% saturation. This mixture was agitated for 60 min and the precipitate was recovered by centrifugation. The resulting pellet was suspended in buffer B {50 mM Tris-HCl, pH 8; 30 mM NaCl; 1 mM DL-dithiothreitol (DTT); 1 mM EDTA; 1 mM PMSF; 10% glycerol}, and dialyzed for 18 h against the same buffer.
An aliquot of the dialyzed extract containing 150 mg of the protein was loaded onto a Sephadex A25® anion exchange column (Pharmacia, Uppsala, Sweden) with bed dimensions of 70 cm length and 2.5 cm diameter. The sample was eluted isocratically with buffer B at a linear flow rate of 10 cm/h. Fractions containing HIV protease activity (see below for assay description) were combined, and soluble protein was precipitated by the addition of saturated aqueous (NH4)2 SO4 to yield a total (NH4)2 SO4 concentration of 85% saturation. Precipitated protein was removed by centrifugation and the resulting pellet was dissolved in buffer C {50 mM 2-(4-morpholino)ethanesulfonic acid (MES), pH 5.5; 150 mM NaCl; 1 mM DTT; 1 mM EDTA; 10% glycerol}. This preparation was dialyzed for 18 h against buffer C, and then frozen at -70°. All crude extracts were purified by chromatography in aliquots containing 150 mg of protein in the same manner as described above. […]

For test [1], the system named is HIV (H9/HTLV-IIIB) in C8166 cells. The experiment in a line: plaque assay: inhibition of syncytia formation in HIV-infected C8166 cells. It counts as cell-based. The conditions noted are these: 72 h, 50% inhibition of syncytia formation. From the text: Typical of such procedures are those described by S. Harada and N. Yamamoto, Jpn. J. Cancer Res. (Gann), 76, 432 (1985), and S. Harada et al., Science, 229, 563 (1985). An assay based on the latter procedures is described in the examples hereinafter.
The following protocol, used for screening antiviral effects of the compounds of formula 1, is adapted from a plaque assay utilizing HTLV-I transformed cells, previously reported by Harada et al., supra. HTLV-I transformed cells are used because of the rapidity with which HIV will replicate in the cells.
1. The test compound is dissolved in dimethylsulfoxide to a concentration of 5 mg/mL. The resultant solution can be stored at 4° until use.
2. The resultant solution is diluted in RPMI 1640 (Gibco Laboratories, St. Lawrence, Mass., USA) to four times (4×) the final concentration which is to be tested. Once diluted in RPMI 1640, the solution is used in the cell culture assay within 4 h.
3. The 4× solution (50 μL) is added to triplicate wells of a 96 well flat bottomed microtiter plate. RPMI (50 μL) also is added to control wells.
4. C8166 cells (5×10^4) in 50 μL of HEPES-buffered RPMI 1640 (pH=7.2), 10% heat inactivated fetal calf serum (FCS), […] gentamicin (complete media) are added to all wells.
5. Fifty times TCID50 of H9/HTLV-IIIB stock (stored in liquid nitrogen as cell culture supernatant in 50% FCS) in 100 μL of complete media is added to all wells. Infectious titer of virus stocks are as previously determined by end point dilution on C8166 cells. Titer of stocks are stable for 6-12 months when stored at -193°.
6. Microtiter plates are then placed on level shelves of a 37°, 5% CO2 humidified incubator for 72 h.
7. Plates are then removed and centers of syncytia are counted in each well by low power phase contrast light microscopy. […] Control wells should have between 25 and 75 centers of syncytia per well.
8. Percent inhibition of syncytia formation is calculated by the formula: [formula]
The concentration of the test compound which causes a 50% inhibition of syncytia formation, i.e. the EC50, is determined by using the technique of serial dilution of the working solution at step 3 and by using non-linear regression analysis (SAS® program) to graphically plot the observed percent inhibition of syncytia formation against the various concentrations of the test compound.

The mark [2] stands for this setting: Human immunodeficiency virus 1, IIIB, Table IV.
Where [3] appears, read: Human immunodeficiency virus 1, IIIB, Table V.
Where [4] appears, read: Human immunodeficiency virus 1, IIIB, Table VI.

In general, IC50 refers to the midpoint of a concentration-inhibition curve. Usually EC50 stands for the concentration needed to bring the measured effect to its halfway point. The low end stands for higher potency in that assay, the high end for lower potency in that assay. Take `CC[C@H](C)[C@H](NC(=O)OCc1ccccn1)C(=O)N[C@@H](Cc1ccccc1)[C@H](O)CN1CC[C@@H](c2ccccc2)C[C@H]1C(=O)NC(C)(C)C` [Table IV, entry 27, N-tert-butyl-1-{2(R)-hydroxy-4-phenyl-3(S)-{{N-{(2-pyridinylmethoxy)carbonyl}isoleucyl}amino}butyl}-4(R)-phenylpiperidine-2(S)-carboxamide]: the IC50 at HIV protease (Table IV) turned out to be 0.0049 µM. The same compound had an EC50 in test [1] (setting [2]) of 0.5 µM.
As to `CC(C)(C)NC(=O)[C@@H]1C[C@H](S(=O)(=O)c2ccccc2)CCN1C[C@@H](O)[C@H](Cc1ccccc1)NC(=O)[C@H](CC(N)=O)NC(=O)c1ccc2ccccc2n1` [Table IV, entry 22, N-tert-butyl-1-{2(R)-hydroxy-4-phenyl-3(S)-{{N-(2-quinolinylcarbonyl)asparaginyl}amino}butyl}-4(R)-(phenylsulfonyl)piperidine-2(S)-carboxamide], the IC50 on HIV protease (Table IV) came out at 0.0047 µM. In addition, in test [1] (setting [2]), the 50% effective concentration (EC50) is 0.45 µM.
As to `CC(C)[C@H](NC(=O)c1ccc2ccccc2c1)C(=O)N[C@@H](Cc1ccccc1)[C@H](O)CN1CC[C@@H](Sc2ccccc2)C[C@H]1C(=O)NC(C)(C)C` [Table IV, entry 24, N-tert-butyl-1-{2(R)-hydroxy-4-phenyl-3(S)-{{N-(2-naphthalenylcarbonyl)valyl}amino}butyl}-4(R)-(phenylthio)piperidine-2(S)-carboxamide], at HIV protease (Table IV), the IC50 is 0.0023 µM. Moreover, the EC50 in test [1] (setting [2]) amounted to 0.016 µM.
Regarding `CC(C)[C@H](NC(=O)c1ccc2ccccc2n1)C(=O)N[C@@H](Cc1ccccc1)[C@H](O)CN1CC[C@@H](S(=O)(=O)c2ccccn2)C[C@H]1C(=O)NC(C)(C)C` [Table V, entry 20, N-tert-butyl-1-{2(S)(R)-hydroxy-4-phenyl-3(S)-{{N-(2-quinolylinylcarbonyl)valyl}amino}butyl}-4(R)-(2-pyridinylsulfonyl)piperidine-2-carboxamide], the IC50 at HIV protease (Table V) was 0.0017 µM. Besides, the EC50 in test [1] (setting [3]) is 0.013 µM.
In the case of `CC[C@H](C)[C@H](NC(=O)OCc1ccccc1)C(=O)N[C@@H](Cc1ccccc1)[C@H](O)CN1CC[C@@H](c2ccccc2)C[C@H]1C(=O)NC(C)(C)C` [Table IV, entry 11, N-tert-butyl-1-{3(S)-{{N-(benzyloxycarbonyl)isoleucyl}amino}-2(R)-hydroxy-4-phenylbutyl}-4(R)-phenylpiperidine-2(S)-carboxamide], the half-inhibitory concentration (IC50) at HIV protease (Table IV) stood at 0.0037 µM. Besides, the EC50 in test [1] (setting [2]) turned out to be 0.7 µM.
Turning to `CC(C)(C)NC(=O)[C@@H]1C[C@H](Sc2ncccn2)CCN1C[C@@H](O)[C@H](Cc1ccccc1)NC(=O)[C@H](CC(N)=O)NC(=O)c1ccc2ccccc2n1` [Table VI, entry 3, N-tert-butyl-1-{2(R)-hydroxy-4-phenyl-3(S)-{{N-(2-quinolylinylcarbonyl)asparaginyl}amino}butyl}-4(R)-(2-pyrimidinylthio)piperidine-2(S)-carboxamide], at HIV protease (Table VI), the IC50 worked out at 0.0021 µM. For the same compound, the EC50 in test [1] (setting [4]) was 0.06 µM.
`CC(C)[C@H](NC(=O)c1ccc2ccccc2n1)C(=O)N[C@@H](Cc1ccccc1)C(O)CN1CC[C@@H](S(=O)(=O)c2ccccc2)CC1C(=O)NC(C)(C)C` (stereo partly drawn) [Table V, entry 14, N-tert-butyl-1-{2(S)(R)-hydroxy-4-phenyl-3(S)-{{N-(2-quinolylinylcarbonyl)valyl}amino}butyl}-4(R)-(phenylsulfonyl)piperidine-2-carboxamide]: at HIV protease (Table V), the IC50 amounted to 0.0029 µM. This compound yielded an EC50 in test [1] (Table V) of 0.023 µM.
Consider `CC(C)(C)NC(=O)[C@@H]1C[C@H](S(=O)(=O)c2ccccn2)CCN1C[C@@H](O)[C@H](Cc1ccccc1)NC(=O)[C@@H](NC(=O)c1ccc2ccccc2n1)C(C)(C)C` [Table VI, entry 8, N-tert-butyl-1-{2(R)-hydroxy-4-phenyl-3(S)-{{N-(2-quinolylinylcarbonyl)tert-butylglycyl}amino}butyl}-4(R)-(2-pyridinylsulfonyl)piperidine-2(S)-carboxamide], for which the IC50 on HIV protease (Table VI) worked out at 0.0029 µM. For the same compound, in test [1] (setting [4]), the response was half-maximal at 0.044 µM (EC50).
For `CC(C)[C@H](NC(=O)c1ccc2ccccc2n1)C(=O)N[C@@H](Cc1ccccc1)[C@H](O)CN1CC[C@@H](OCc2ccccn2)C[C@H]1C(=O)NC(C)(C)C` [Table V, entry 3, N-tert-butyl-1-{2(R)-hydroxy-4-phenyl-3(S)-{{N-(2-quinolylinylcarbonyl)valyl}amino}butyl}-4(R)-(2-pyridinylmethoxy)piperidine-2-carboxamide], at HIV protease (Table V), the IC50 is 0.0039 µM. The response in test [1] (setting [3]) was half-maximal at 0.024 µM (EC50).
Consider `CC(C)(C)NC(=O)[C@@H]1C[C@H](Sc2ccccn2)CCN1C[C@@H](O)[C@H](Cc1ccccc1)NC(=O)OCc1ccccc1` [Table IV, entry 28], for which the IC50 at HIV protease (Table IV) turned out to be 0.016 µM. This compound also returned an EC50 in test [1] (setting [2]) of 0.5 µM.
Consider `Cc1cc(O[C@@H]2CCN(C[C@@H](O)[C@H](Cc3ccccc3)NC(=O)[C@@H](NC(=O)c3ccc4ccccc4n3)C(C)C)[C@H](C(=O)NC(C)(C)C)C2)nc(C)n1` [Table V, entry 13, N-tert-butyl-1-{2(S)(R)-hydroxy-4-phenyl-3(S)-{{N-(2-quinolylinylcarbonyl)valyl}amino}butyl}-4(R)-{(2,6-dimethyl-4-pyrimidinyl)oxy}piperidine-2-carboxamide], for which the IC50 on HIV protease (Table V) amounted to 0.0036 µM. Also, the EC50 in test [1] (setting [3]) is 0.017 µM.
